The IC50 is the concentration needed to halve the response being measured.

SMILES strings stand for the structures. Read-outs that look alike come from different tables or passages of the source.

Consider 23 compounds from patent US5688787A, “Substituted β-lactam compounds useful as hypochlesterolemic agents and processes for the preparation thereof” (priority 1996, dated 1997).

The target of one assay is T1, ACAT (Rattus norvegicus, UniProt Q7TQM4).
T1 construct: Rat liver microsomes are used as the source of ACAT; from tissue; host or cells: rat liver microsomes
T1 sequence (Q7TQM4 1-524): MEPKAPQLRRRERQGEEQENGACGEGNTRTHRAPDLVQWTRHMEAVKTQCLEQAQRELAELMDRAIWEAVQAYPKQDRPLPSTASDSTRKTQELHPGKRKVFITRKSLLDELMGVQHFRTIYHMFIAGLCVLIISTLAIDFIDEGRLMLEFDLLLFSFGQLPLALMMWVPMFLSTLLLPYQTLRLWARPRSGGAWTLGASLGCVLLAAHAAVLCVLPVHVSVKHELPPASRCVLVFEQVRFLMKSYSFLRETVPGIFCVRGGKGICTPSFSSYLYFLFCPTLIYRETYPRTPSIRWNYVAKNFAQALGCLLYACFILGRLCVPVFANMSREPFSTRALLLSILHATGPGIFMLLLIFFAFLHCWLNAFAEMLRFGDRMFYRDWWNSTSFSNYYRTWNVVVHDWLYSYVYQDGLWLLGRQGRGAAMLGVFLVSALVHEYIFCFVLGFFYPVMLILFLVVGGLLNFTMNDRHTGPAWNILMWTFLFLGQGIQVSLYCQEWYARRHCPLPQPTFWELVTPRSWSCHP
Kind of assay: ACAT Assay (in vitro). Format: biochemical. Conditions: for inhibition at 10 µM: Conc. 10 µM; for IC50: rat liver microsomes, read-out: ACAT (in vitro) IC50. (Liver microsomes are vesicles of endoplasmic reticulum, rich in cytochrome P450 enzymes.)

The subject of another assay is Hyperlipidemic Hamster. The assay can be described thus: In Vivo Assay of Hypolipidemic Agents Using the Hyperlipidemic Hamster. As to conditions: Mesocricetus auratus, po, 168 h, 7 days, percent change versus control, negative = lowering; for change in vivo at 50 mg/kg: 50 mg/kg once daily oral; for change in vivo at 85 mg/kg: 85 mg/kg once daily oral; for change in vivo at 100 mg/kg: 100 mg/kg once daily oral. The method in brief:
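Hamsters, six per group, were fed chow with 0.5% cholesterol for seven days and given compound once daily by oral gavage in corn oil; controls received corn oil alone. Plasma (EDTA) and liver lipids were measured at sacrifice. Values are percent change versus control, so negative means lowering.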

Setting [1] is: negative = apparent stimulation, read-out: ACAT (in vitro) % Inhib.
The mark [2] stands for this setting: read-out: % Reduction (in vivo) Cholest. Esters.
The mark [3] stands for this setting: read-out: % Reduction (in vivo) Serum Cholest.

Protocol for ACAT: This assay measures the activity of ACAT by measuring the ACAT-mediated transfer of tritiated oleic acid from acyl-CoA to cholesterol to give labelled cholesteryl oleate. Rat liver microsomes are used as the source of ACAT. Assays are performed in round bottom microtiterplates using a total incubation volume of 50 μL. […] The microtiterplate is then floated on the surface of a 37° C. water bath for fifteen minutes. Incubations are started by the addition of 3 μL ^3 H-acyl CoA (1 μCi/well, final concentration of 10 μM acyl CoA). The plate is then returned to the water bath for 15 minutes. The incubations are then terminated by application of 15 μL from each incubation to individual lanes on a thin layer plate (Silica Gel GF 20×20 cm). Standards are applied to several lanes so that the cholesteryl ester band can be identified. After drying, the plates am eluted with 90:10:1 petroleum ether:diethyl ether:acetic acid. The standards am visualized via iodine vapor, and the regions corresponding to cholesteryl ester are scraped into 7 mL scintillation vials. 4 mL of scintillant are added to each vial, and the radioactivity quantified. Background count is determined by the boiled controls. Full activity is determined by activity in the presence of vehicle. The percent inhibition is calculated by subtracting the background from both control and test samples, and the test value is calculated as a percentage of the control.
For the in vitro ACAT data, negative percent inhibition denotes apparent stimulation,while positive numbers denote inhibition.

As to `CC[C@@]1(CCCc2ccccc2)C(=O)N(c2ccc(OC)cc2)[C@H]1C=Cc1ccccc1` (relative stereo) [Example 3G], the inhibition at 10 µM on ACAT (setting [1]) stood at 74%. Moreover, the IC50 at ACAT is 5 µM. The change in vivo at 50 mg/kg stood at 0% in the assay with Hyperlipidemic Hamster (setting [2]) and 9% in the assay with Hyperlipidemic Hamster (setting [3]).
As to `COc1ccc([C@H]2[C@@H](CCCCCCc3ccccc3)C(=O)N2c2ccc(OC)cc2)cc1` (relative stereo) [Example 1CE], the inhibition at 10 µM at ACAT (setting [1]) came out at 15%. Moreover, the results for the change in vivo at 50 mg/kg with Hyperlipidemic Hamster (setting [2]) and with Hyperlipidemic Hamster (setting [3]) were -17% and -19%, respectively.
Take `CCCCCCCCCC[C@H]1C(=O)N(c2ccc(OC)cc2)[C@H]1c1ccccc1` (relative stereo) [Example 1S]: on ACAT (setting [1]), the inhibition at 10 µM was -19%. The change in vivo at 85 mg/kg in the assay with Hyperlipidemic Hamster (setting [2]) was -32%; with Hyperlipidemic Hamster (setting [3]), 0%.
With `COc1ccc(N2C(=O)[C@H](CCCc3ccccc3)[C@H]2c2ccco2)cc1` (relative stereo) [Example 1BD], the inhibition at 10 µM at ACAT (setting [1]) was determined as 17%. Besides, the change in vivo at 50 mg/kg with Hyperlipidemic Hamster (setting [2]) was -25%; with Hyperlipidemic Hamster (setting [3]), 0%.
As for `COc1ccc(N2C(=O)[C@@H](CCCc3ccccc3)[C@@H]2c2cccs2)cc1` (relative stereo) [Example 1BQ], on ACAT (setting [1]), the inhibition at 10 µM worked out at 35%. The change in vivo at 50 mg/kg is -17% with Hyperlipidemic Hamster (setting [2]) and 0% in the assay with Hyperlipidemic Hamster (setting [3]).
On to `COc1ccc(N2C(=O)[C@](C(=O)Cc3ccccc3)(c3ccccc3)[C@@H]2c2ccccc2)cc1` (relative stereo) [Example 1A], for which the inhibition at 25 µM at ACAT (Conc. 25 µM, negative = apparent stimulation, read-out: ACAT (in vitro) % Inhib.) was found to be 83%. The change in vivo at 100 mg/kg with Hyperlipidemic Hamster (setting [2]) is -26%; in the assay with Hyperlipidemic Hamster (setting [3]) it was -10%.
As to `CC[C@@]1(CCCc2ccccc2)C(=O)N(c2ccc(OC)cc2)[C@H]1CCc1ccccc1` (relative stereo) [Example 6], the inhibition at 10 µM on ACAT (setting [1]) was 59%. At ACAT, the IC50 was 5 µM. For the same compound, the change in vivo at 50 mg/kg in the assay with Hyperlipidemic Hamster (setting [2]) was determined as 0%; with Hyperlipidemic Hamster (setting [3]) it was 14%.
As to `CC[C@]1(CCc2ccccc2)C(=O)N(c2ccc(OC)cc2)[C@H]1c1ccccc1` (relative stereo) [Example 3H], the inhibition at 10 µM on ACAT (setting [1]) came out at 66%. Further, the change in vivo at 50 mg/kg was 31% in the assay on Hyperlipidemic Hamster (setting [2]) and -10% in the assay with Hyperlipidemic Hamster (setting [3]).
As to `COc1ccc([C@@H]2N(c3ccc(OC)cc3)C(=O)[C@@]2(Cc2ccccc2)c2ccccc2)cc1` (relative stereo) [Example 7AH], on ACAT (setting [1]), the inhibition at 10 µM is -5%. In addition, the change in vivo at 50 mg/kg in the assay with Hyperlipidemic Hamster (setting [2]) and in the assay with Hyperlipidemic Hamster (setting [3]) was 16% each time.
Consider `COc1ccc(N2C(=O)[C@H](CCCc3ccccc3)[C@@H]2c2ccccc2)cc1` (relative stereo) [Example 1B], for which the inhibition at 10 µM on ACAT (setting [1]) is 28%. Moreover, the change in vivo at 50 mg/kg in the assay on Hyperlipidemic Hamster (setting [2]) and with Hyperlipidemic Hamster (setting [3]) was 0% throughout.
`CC[C@@H]1C(=O)N(c2ccc(OC)cc2)[C@H]1C=Cc1ccccc1` (relative stereo) [Example 1AG]: on ACAT (setting [1]), the inhibition at 10 µM was -3%. In addition, the values for the change in vivo at 50 mg/kg with Hyperlipidemic Hamster (setting [2]) and in the assay on Hyperlipidemic Hamster (setting [3]) were -29% and -16%, respectively.
For `COc1ccc(N2C(=O)[C@@H](CCCc3ccccc3)[C@H]2c2ccc(CO)cc2)cc1` (relative stereo) [Example 15A], in that order: 2%, 0% and 0%.
Consider `COc1ccc([C@H]2[C@@H](CCc3ccccc3)C(=O)N2c2ccc(OC)cc2)cc1` (relative stereo) [Example 1CC], for which the inhibition at 10 µM at ACAT (setting [1]) stood at 46%. The change in vivo at 50 mg/kg in the assay with Hyperlipidemic Hamster (setting [2]) and in the assay with Hyperlipidemic Hamster (setting [3]) was 0% each time.
On to `COc1ccc(N2C(=O)[C@@H](CCCc3ccccc3)[C@H]2c2ccc(S(C)(=O)=O)cc2)cc1` (relative stereo) [Example 17A], for which the inhibition at 10 µM at ACAT (setting [1]) was 38%. For the same compound, the change in vivo at 50 mg/kg was -25% with Hyperlipidemic Hamster (setting [2]) and -11% in the assay with Hyperlipidemic Hamster (setting [3]).
For the compound `COc1ccc(N2C(=O)[C@H](CCCc3ccccc3)[C@@H]2c2ccc(SC)cc2)cc1` (relative stereo) [Example 1AU], at ACAT (setting [1]), the inhibition at 10 µM turned out to be 44%. Also, the change in vivo at 50 mg/kg is -21% with Hyperlipidemic Hamster (setting [2]) and 0% in the assay on Hyperlipidemic Hamster (setting [3]).
In the case of `COc1ccc(N2C(=O)[C@@H](CCCc3ccccc3)[C@@H]2c2ccsc2)cc1` (relative stereo) [Example 1BP], the inhibition at 10 µM on ACAT (setting [1]) came out at 58%. The change in vivo at 50 mg/kg with Hyperlipidemic Hamster (setting [2]) is 0%; in the assay with Hyperlipidemic Hamster (setting [3]), -9%.
For `COc1ccc(N2C(=O)[C@@H](CCCc3ccccc3)[C@@H]2C=Cc2ccccc2)cc1` (relative stereo) [Example 1K], in that order: -70%, 0% and 0%.
`COc1ccc([C@H]2[C@@H](CCCC3CCCCC3)C(=O)N2c2ccc(OC)cc2)cc1` (relative stereo) [Example 1CF]: on ACAT (setting [1]), the inhibition at 10 µM turned out to be 53%. Besides, the change in vivo at 50 mg/kg with Hyperlipidemic Hamster (setting [2]) is -47%; in the assay on Hyperlipidemic Hamster (setting [3]), -23%.
With `CCCCCCCCCC[C@]1(c2ccccc2)C(=O)N(c2ccc(OC)cc2)[C@H]1c1ccccc1` (relative stereo) [Example 3R], the inhibition at 10 µM on ACAT (setting [1]) is -8%. For the same compound, the change in vivo at 50 mg/kg with Hyperlipidemic Hamster (setting [2]) and in the assay with Hyperlipidemic Hamster (setting [3]) was 0% in each case.
Consider `COc1ccc(N2C(=O)[C@H](CCCc3ccccc3)[C@@H]2c2ccc([N+](=O)[O-])cc2)cc1` (relative stereo) [Example 1H], for which the inhibition at 10 µM on ACAT (setting [1]) amounted to 57%. In addition, the change in vivo at 50 mg/kg with Hyperlipidemic Hamster (setting [2]) is -51%; with Hyperlipidemic Hamster (setting [3]) it was -21%.
As to `COc1ccc([C@@H]2[C@@H](CCCc3ccccc3)C(=O)N2c2ccc(O)cc2)cc1` (relative stereo) [Example 10A], the inhibition at 10 µM on ACAT (setting [1]) is -37%. The results for the change in vivo at 50 mg/kg with Hyperlipidemic Hamster (setting [2]) and in the assay with Hyperlipidemic Hamster (setting [3]) were -58% and -19%, respectively.
As for `COc1ccc(N2C(=O)[C@@H](CCCc3ccccc3)[C@@H]2c2ccc([N+](=O)[O-])cc2)cc1` (relative stereo) [Example 1G], the inhibition at 10 µM on ACAT (setting [1]) stood at 21%. Moreover, the change in vivo at 50 mg/kg is 0% with Hyperlipidemic Hamster (setting [2]) and -11% with Hyperlipidemic Hamster (setting [3]).
`CC[C@@]1(CCCc2ccccc2)C(=O)N(c2ccc(OC)cc2)[C@H]1c1ccc(OC)cc1` (relative stereo) [Example 3O]: the inhibition at 10 µM at ACAT (setting [1]) was -28%. For the same compound, the change in vivo at 50 mg/kg in the assay with Hyperlipidemic Hamster (setting [2]) and in the assay on Hyperlipidemic Hamster (setting [3]) was 0% in each case.
